The results in this text go back to ChEMBL document CHEMBL1134110, “Anticonvulsant effects of new morphinan derivatives” (2001).

Holding throughout (type): functional
The subject of test [1] is Rattus norvegicus. The experiment in a line: The compound was tested for anticonvulsive activity expressed as seizure score after 4 hr of injection of kainic acid (10 mg/kg) in 15 rats.
For test [2], the system named is Rattus norvegicus. Briefly: The compound was examined for circling behavior (marginal activity) using automated videotracking system 30 min after intraperitoneal injection at the dose of 40 mg/Kg in 12 rats.
The subject of test [3] is Rattus norvegicus. The experiment in a line: The compound was tested for anticonvulsive activity expressed as seizure score after 4 hr of injection of kainic acid (10 mg/kg) and the drug at the dose of 40 mg/Kg in 15 rats.
For test [4], the system named is Rattus norvegicus. The experiment in a line: The compound was examined for circling behavior (marginal activity) using automated videotracking system 30 min after intraperitoneal injection at the dose of 20 mg/Kg in 12 rats.
Test [5] concerns Rattus norvegicus. The experiment in a line: Effect was expressed as mortality after injection of kainic acid (10 mg/kg) and the drug at the dose of 20 mg/Kg after 48 hr out of 19 animals.
Test [6] deals with Rattus norvegicus. Briefly: Effect was expressed as mortality after injection of kainic acid (10 mg/kg) and the drug at the dose of 40 mg/Kg after 48 hr.
Test [7] concerns Rattus norvegicus. Briefly: The compound was tested for anticonvulsive activity expressed as seizure score after 4 hr of injection of kainic acid (10 mg/kg) and the drug at the dose of 20 mg/Kg in 15 rats.
The test system of test [8] is Rattus norvegicus. Briefly: The compound was examined for circling behavior (marginal activity) using automated videotracking system 30 min after intraperitoneal injection at the dose of 5 mg/Kg in 12 rats.

On to `C=C(C)[C@H]1CN[C@H](C(=O)O)[C@H]1CC(=O)O` [KAINIC ACID], for which, in the test with Rattus norvegicus [1], the Seizure score was 4.2.

For `COc1ccc2c(c1)C13CCCCC1C(C2)N(C)CC3` (stereo not drawn) [RACEMETHORPHAN], the “Absolute turn angular/3 min” value in the test with Rattus norvegicus [2] is 265; in the test on Rattus norvegicus [4], 192. The Seizure score with Rattus norvegicus [3] is 1.4; in the test on Rattus norvegicus [7], 2.2. Moreover, the values for the Mortality in the test with Rattus norvegicus [5] and with Rattus norvegicus [6] were 4 and 2, respectively.

For `C=CCN1CCC23CCCCC2C1Cc1ccc(OC)cc13` (configuration not stated), the “Absolute turn angular/3 min” value in the test with Rattus norvegicus [2] is 282; in the test with Rattus norvegicus [4] it was 224. In addition, the Seizure score came out at 2.2 with Rattus norvegicus [3] and 2.9 in the test with Rattus norvegicus [7]. Further, the Mortality in the test with Rattus norvegicus [5] and with Rattus norvegicus [6] was 6 in each case.

With `C=CCOc1ccc2c(c1)C13CCCCC1C(C2)N(CC1CC1)CC3` (configuration not stated), the “Absolute turn angular/3 min” value with Rattus norvegicus [2] was determined as 250; with Rattus norvegicus [4], 172. Also, the results for the Seizure score in the test on Rattus norvegicus [3] and in the test on Rattus norvegicus [7] were 2 and 2.8, respectively. The Mortality with Rattus norvegicus [5] and in the test on Rattus norvegicus [6] was 4 throughout.

As to `C=CCOc1ccc2c(c1)C13CCCCC1C(C2)N(C)CC3` (configuration not stated), the “Absolute turn angular/3 min” value in the test with Rattus norvegicus [2] is listed as 219; with Rattus norvegicus [4], 168. The Seizure score is on record as 1.5 in the test with Rattus norvegicus [3] and 1.9 in the test with Rattus norvegicus [7]. In addition, the Mortality with Rattus norvegicus [5] and with Rattus norvegicus [6] was 3 throughout.

Take `c1ccc(C2(N3CCCCC3)CCCCC2)cc1` [PHENCYCLIDINE]: the “Absolute turn angular/3 min” value with Rattus norvegicus [8] amounted to 420.

`COc1ccc2c(c1)C13CCCCC1C(C2)NCC3` (configuration not stated): the “Absolute turn angular/3 min” value in the test with Rattus norvegicus [2] is listed as 258; with Rattus norvegicus [4] it was 186. Besides, the results for the Seizure score with Rattus norvegicus [3] and in the test on Rattus norvegicus [7] were 2 and 2.4, respectively. Further, the Mortality in the test with Rattus norvegicus [5] and with Rattus norvegicus [6] was 4 in each case.

With `Oc1ccc2c(c1)C13CCCCC1C(C2)NCC3` (configuration not stated), the “Absolute turn angular/3 min” value was determined as 262 in the test on Rattus norvegicus [2] and 194 in the test with Rattus norvegicus [4]. For the same compound, the results for the Seizure score in the test on Rattus norvegicus [3] and in the test on Rattus norvegicus [7] were 2.1 and 2.5, respectively. Besides, the Mortality turned out to be 5 in the test with Rattus norvegicus [5] and 4 in the test on Rattus norvegicus [6].

With `CN1CCC23CCCCC2C1Cc1ccc(OCC2CC2)cc13` (configuration not stated), the results for the “Absolute turn angular/3 min” value with Rattus norvegicus [2] and with Rattus norvegicus [4] were 202 and 160, respectively. Also, the values for the Seizure score in the test with Rattus norvegicus [3] and with Rattus norvegicus [7] were 1.3 and 1.8, respectively. Further, the values for the Mortality with Rattus norvegicus [5] and with Rattus norvegicus [6] were 3 and 2, respectively.

On to `C=CCN1CCC23CCCCC2C1Cc1ccc(OCC2CC2)cc13` (configuration not stated), for which the “Absolute turn angular/3 min” value in the test with Rattus norvegicus [2] was determined as 242; in the test with Rattus norvegicus [4] it was 175. Also, the Seizure score is 2.2 with Rattus norvegicus [3] and 2.7 in the test on Rattus norvegicus [7]. Moreover, the Mortality was determined as 5 in the test with Rattus norvegicus [5] and 4 with Rattus norvegicus [6].

As to `CN1CC[C@]23CCCC[C@H]2[C@H]1Cc1ccc(O)cc13` [LEVORPHANOL], the “Absolute turn angular/3 min” value was 384 in the test on Rattus norvegicus [2] and 310 in the test on Rattus norvegicus [4]. Moreover, the Seizure score with Rattus norvegicus [3] was 1.8; with Rattus norvegicus [7], 2.8. Moreover, the Mortality with Rattus norvegicus [5] is 5; in the test with Rattus norvegicus [6], 4.

`C=CCOc1ccc2c(c1)C13CCCCC1C(C2)NCC3` (configuration not stated): the “Absolute turn angular/3 min” value is 184 with Rattus norvegicus [2] and 152 in the test with Rattus norvegicus [4]. The Seizure score with Rattus norvegicus [3] is on record as 1; in the test on Rattus norvegicus [7], 1.5. The Mortality in the test on Rattus norvegicus [5] is recorded as 11; in the test with Rattus norvegicus [6], 1.
